Assay results as given in US20230014907A1, “INHIBITORS OF APOL1 AND METHODS OF USING SAME” (Vertex Pharmaceuticals Incorporated, priority 2020, published 2023).

Each compound was assayed against T1, G1 APOL1 (Homo sapiens, UniProt O14791, I384M/S342G) (assay: Acute APOL1 Thallium Assay with Inducible Stable Clones of HEK 293 Cells). Conditions: HEK 293 inducible stable clones, G1 APOL1; read-out: Thallium Assay (IC50).
T1 construct: expressed in transfected cells
T1 sequence (O14791 28-398 S342G/I384M): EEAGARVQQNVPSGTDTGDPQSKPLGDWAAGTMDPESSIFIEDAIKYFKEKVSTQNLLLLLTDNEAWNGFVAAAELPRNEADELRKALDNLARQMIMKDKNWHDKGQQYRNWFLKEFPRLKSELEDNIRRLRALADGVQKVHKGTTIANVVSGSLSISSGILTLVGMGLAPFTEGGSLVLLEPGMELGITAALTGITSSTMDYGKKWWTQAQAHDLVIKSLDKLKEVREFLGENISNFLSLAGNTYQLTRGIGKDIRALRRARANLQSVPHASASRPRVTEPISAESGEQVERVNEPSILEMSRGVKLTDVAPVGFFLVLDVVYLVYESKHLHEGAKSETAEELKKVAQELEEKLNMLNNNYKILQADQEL
Type: cell-based
How it was run: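 Pore activity was read as the fluorescence increase from Tl+ entering cells loaded with an AM-ester thallium indicator dye. The cells were tetracycline-inducible HEK293 T-Rex expressing G1 APOL1 (clone DC3.25), induced when plated at 26000 per well and incubated at 37° C.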

Structure (SMILES) | IC50 [nM]
O=C(CCc1c(-c2ccc(F)cc2)[nH]c2c(F)cc(Cl)cc12)NC(CO)(CO)CO [Compound 195] | 250 to 1000
CN(C[C@H](O)CO)C(=O)OCCc1c(-c2ccc(F)cc2)[nH]c2c(F)cc(F)cc12 [Compound 482] | > 1000
CN(C)C(=O)CCC(=O)NCCc1c(-c2ccc(F)cc2)[nH]c2c(F)cc(F)cc12 [Compound 374] | > 1000
Cn1ccc(C(=O)NCCc2c(-c3ccc(F)cc3)[nH]c3c(F)cc(F)cc23)n1 [Compound 390] | > 1000
O=C(NCCc1c(-c2ccc(F)cc2)[nH]c2c(F)cc(F)cc12)c1nc(C(F)(F)F)cs1 [Compound 368] | > 1000
Cc1cc(F)c2[nH]c(-c3ccc(F)cc3)c(CCC(=O)NC[C@H](O)CO)c2c1 [Compound 226] | > 1000
O=C(NCCc1c(-c2ccc(F)cc2)[nH]c2c(F)cc(F)cc12)N1CCC[C@H]1CO [Compound 296] | > 1000
CC(CO)CNC(=O)NCCc1c(-c2ccc(F)cc2)[nH]c2c(F)cc(F)cc12 (racemic) [Compound 280] | > 1000
CC(C)C(CO)NC(=O)OCCc1c(-c2ccc(F)cc2)[nH]c2c(F)cc(F)cc12 (stereo not drawn) [Compound 467] | 250 to 1000
O=C(N[C@H]1COC[C@@H]1O)OCCc1c(-c2ccc(F)cc2)[nH]c2c(F)cc(F)cc12 [Compound 474] | 250 to 1000
O=C(NCCc1c(-c2ccc(F)cc2)[nH]c2c(F)cc(F)cc12)NC1(CCO)CC1 [Compound 274] | 250 to 1000
O=C(NCCc1c(-c2ccc(F)cc2)[nH]c2c(F)cc(F)cc12)[C@H]1CC[C@H](O)CC1 [Compound 325] | > 1000
O=C(Cn1nccn1)NCCc1c(-c2ccc(F)cc2)[nH]c2c(F)cc(F)cc12 [Compound 387] | > 1000
O=C(CO)NCCc1c(-c2ccc(F)cc2)[nH]c2c(F)cc(F)cc12 [Compound 365] | > 1000
CN1CC(NC(=O)NCCc2c(-c3ccc(F)cc3)[nH]c3c(F)cc(F)cc23)CC1=O (stereo not drawn) [Compound 294] | > 1000
Cn1ccnc1S(=O)(=O)NCCc1c(-c2ccc(F)cc2)[nH]c2c(F)cc(F)cc12 [Compound 424] | > 1000
O=C(CCc1c(-c2ccc(F)cc2)[nH]c2c(F)cc(F)cc12)NC1=CCNC1=O [Compound 94, 3-[5,7-difluoro-2-(4-fluorophenyl)-1H-indol-3-yl]-N-(5-oxo-1,2-dihydropyrrol-4-yl)propanamide] | > 1000
O=C(NCCc1c(-c2ccc(F)cc2)[nH]c2c(F)cc(F)cc12)c1ccc(O)nc1 [Compound 334] | > 1000
C[C@@H](CO)NC(=O)CCc1c(-c2ccc(F)cc2)[nH]c2c(F)cc(Cl)cc12 [Compound 203] | > 1000
O=C1N[C@H](C(=O)NCCc2c(-c3ccc(F)cc3)[nH]c3c(F)cc(F)cc23)CCO1 [Compound 323] | > 1000
C[C@H](O)CNC(=O)NCCc1c(-c2ccc(F)cc2)[nH]c2c(F)cc(F)cc12 [Compound 284] | > 1000
O=C(CCc1c(-c2ccc(F)cc2)[nH]c2c(F)cc(Cl)cc12)NC[C@H](O)CO [Compound 204] | > 1000

Structure (SMILES) | IC50 [nM]
O=C(NCCc1c(-c2ccc(F)cc2)[nH]c2c(F)cc(F)cc12)c1ccnnc1 [Compound 399] | > 1000
O=C(NCCc1c(-c2ccc(F)cc2)[nH]c2c(F)cc(F)cc12)c1cncs1 [Compound 384] | > 1000
O=C(NCCc1c(-c2ccc(F)cc2)[nH]c2c(F)cc(F)cc12)N[C@@H]1CC[C@@H](O)C1 [Compound 273] | > 1000
O=C(Nc1cc(=O)[nH][nH]1)OCCc1c(-c2ccc(F)cc2)[nH]c2c(F)cc(F)cc12 [Compound 488] | > 1000
O=C(NCCc1c(-c2ccc(F)cc2)[nH]c2c(F)cc(F)cc12)C1(CO)CC1 [Compound 347] | < 250
O=C1CNC(=O)N1CCc1c(-c2ccc(F)cc2)[nH]c2c(F)cc(F)cc12 [Compound 258, 3-[2-[5,7-difluoro-2-(4-fluorophenyl)-1H-indol-3-yl]ethyl]imidazolidine-2,4-dione] | > 1000
O=C(NCCc1c(-c2ccc(F)cc2)[nH]c2c(F)cc(F)cc12)NCC1CC(F)(F)C1 [Compound 289] | > 1000
C[C@@H](O)[C@@H](CO)NC(=O)OCCc1c(-c2ccc(F)cc2)[nH]c2c(F)cc(F)cc12 [Compound 454] | 250 to 1000
CC(CC(N)=O)NC(=O)NCCc1c(-c2ccc(F)cc2)[nH]c2c(F)cc(F)cc12 (racemic) [Compound 271] | 250 to 1000
O=C(NCC1(O)CCC1)OCCc1c(-c2ccc(F)cc2)[nH]c2c(F)cc(F)cc12 [Compound 486] | > 1000
O=C(NCCO)NCCc1c(-c2ccc(F)cc2)[nH]c2c(F)cc(F)cc12 [Compound 286] | > 1000
CC(C)(CO)NC(=O)OCCc1c(-c2ccc(F)cc2)[nH]c2c(F)cc(F)cc12 [Compound 435] | < 250
O=C(CCc1c(-c2ccc(F)cc2)[nH]c2c(F)cc(Cl)cc12)NC(CO)CF (stereo not drawn) [Compound 196] | 250 to 1000
C[C@H](NC(=O)OC(C)(C)C)C(=O)NCCc1c(-c2ccc(F)cc2)[nH]c2c(F)cc(F)cc12 [Compound 313] | > 1000
O=C(NCCc1c(-c2ccc(F)cc2)[nH]c2c(F)cc(F)cc12)c1cncnc1 [Compound 400] | > 1000
O=C(Cc1cnccn1)NCCc1c(-c2ccc(F)cc2)[nH]c2c(F)cc(F)cc12 [Compound 381] | > 1000
COCC1(CNC(=O)NCCc2c(-c3ccc(F)cc3)[nH]c3c(F)cc(F)cc23)CC1 [Compound 292] | > 1000
Cc1ccc(CNC(=O)OCCc2c(-c3ccc(F)cc3)[nH]c3c(F)cc(F)cc23)o1 [Compound 485] | > 1000
N#CCC(=O)NCCc1c(-c2ccc(F)cc2)[nH]c2c(F)cc(F)cc12 [Compound 416] | > 1000
CC(C)(C)OC(=O)N[C@@H](CCO)C(=O)NCCc1c(-c2ccc(F)cc2)[nH]c2c(F)cc(F)cc12 [Compound 307] | > 1000
O=C1CC(C(=O)NCCc2c(-c3ccc(F)cc3)[nH]c3c(F)cc(F)cc23)C(=O)N1 (stereo not drawn) [Compound 333] | < 250
O=C(NCCc1c(-c2ccc(F)cc2)[nH]c2c(F)cc(F)cc12)c1ccccn1 [Compound 403] | > 1000

Structure (SMILES) | IC50 [nM]
Cc1nccn1CC(=O)NCCc1c(-c2ccc(F)cc2)[nH]c2c(F)cc(F)cc12 [Compound 380] | > 1000
O=C(NCCc1c(-c2ccc(F)cc2)[nH]c2c(F)cc(F)cc12)C1(O)COC1 [Compound 342] | 250 to 1000
CC1(CNC(=O)NCCc2c(-c3ccc(F)cc3)[nH]c3c(F)cc(F)cc23)COC1 [Compound 298] | > 1000
CC(CC(=O)NCCc1c(-c2ccc(F)cc2)[nH]c2c(F)cc(F)cc12)C(N)=O (racemic) [Compound 335] | > 1000
O=C(NCC1CCOC1)OCCc1c(-c2ccc(F)cc2)[nH]c2c(F)cc(F)cc12 (stereo not drawn) [Compound 491] | > 1000
CC(C)(C)OC(=O)N[C@H](CO)C(=O)NCCc1c(-c2ccc(F)cc2)[nH]c2c(F)cc(F)cc12 [Compound 305, tert-butyl N-[(1R)-2-[2-[5,7-difluoro-2-(4-fluorophenyl)-1H-indol-3-yl]ethylamino]-1-(hydroxymethyl)-2-oxo-ethyl]carbamate] | > 1000
CNC(=O)C(=O)NCCc1c(-c2ccc(F)cc2)[nH]c2c(F)cc(F)cc12 [Compound 359] | > 1000
Cc1cc(F)c2[nH]c(-c3ccc(F)cc3)c(CCC(=O)NC(CO)CO)c2c1 [Compound 219] | > 1000
O=C(NCCc1c(-c2ccc(F)cc2)[nH]c2c(F)cc(F)cc12)c1cnccn1 [Compound 398] | > 1000
O=S(=O)(CCO)NCCc1c(-c2ccc(F)cc2)[nH]c2c(F)cc(F)cc12 [Compound 422] | > 1000
O=C(NCCc1c(-c2ccc(F)cc2)[nH]c2c(F)cc(F)cc12)c1c[nH]nc1C(F)(F)F [Compound 316] | > 1000
NC(=O)C(=O)NCCc1c(-c2ccc(F)cc2)[nH]c2c(F)cc(F)cc12 [Compound 364] | 250 to 1000
O=C(NCCc1c(-c2ccc(F)cc2)[nH]c2c(F)cc(F)cc12)NCC1(CO)CC1 [Compound 276] | > 1000
COC[C@H](C)NC(=O)OCCc1c(-c2ccc(F)cc2)[nH]c2c(F)cc(F)cc12 [Compound 444] | < 250
CC(=O)NCCc1c(-c2ccc(F)cc2)[nH]c2c(F)cc(F)cc12 [Compound 418, N-[2-[5,7-difluoro-2-(4-fluorophenyl)-1H-indol-3-yl]ethyl]acetamide] | > 1000
Cc1cc(F)c2[nH]c(-c3ccc(F)cc3)c(CCC(=O)NC(CO)CF)c2c1 (stereo not drawn) [Compound 221] | > 1000
Cn1cc(CNC(=O)CCCc2c(-c3ccc(F)cc3)[nH]c3c(F)cc(F)cc23)cn1 [Compound 254] | > 1000
Cn1cnc(CNC(=O)OCCc2c(-c3ccc(F)cc3)[nH]c3c(F)cc(F)cc23)c1 [Compound 478] | > 1000
O=C(NCCc1c(-c2ccc(F)cc2)[nH]c2c(F)cc(F)cc12)NCC1CCCO1 (stereo not drawn) [Compound 297] | > 1000
O=C(NCCc1c(-c2ccc(F)cc2)[nH]c2c(F)cc(F)cc12)OCC1(C(=O)O)CC1 [Compound 426, 1-[2-[5,7-difluoro-2-(4-fluorophenyl)-1H-indol-3-yl]ethylcarbamoyloxymethyl]cyclopropanecarboxylic acid] | > 1000
CN(C[C@H](O)CO)C(=O)CCc1c(-c2ccc(F)cc2)[nH]c2c(F)cc(Cl)cc12 [Compound 211] | > 1000
NC(=O)[C@H](CO)NC(=O)CCc1c(-c2ccc(F)cc2)[nH]c2c(F)cc(Cl)cc12 [Compound 206] | > 1000
